Where a name gives a salt, the structure may show the parent alone.
Tests used:
platelet coagulation [1] = test: Inhibitory activities of test compounds against platelet coagulation ex vivo (oral administration to rats 4 hrs prior to blood collection, ADP-induced, PRP); assay type: in vivo, rat; conditions: for inhibition at 10 µg/mL: Rattus norvegicus, Platelet, po, 4 h, read-out: Test Example 2 (% inhibition); for Test Example 2 (% inhibition): head prints (10 μg/ml), orally administered to rats 4 hrs prior to blood collection, ADP-induced coagulation in PRP
Protocol: Three to four male Sprague-Dawley rats (8 weeks of age, Japan SLC., Inc.) per group were used in the present test. […] In the control group, the vehicle was similarly and orally administered at the rate of 1 mL/kg 4 hrs prior to the blood collection. […] The obtained blood containing sodium citrate was centrifuged (230×g for 15 min at room temperature) and PRP fraction was isolated. Furthermore, after PRP was isolated, the blood was further centrifuged (2,000×g for 10 min at room temperature) and PPP fraction was isolated. Platelet count in PRP was determined by automated hematology analyzer (KX-21N, SYSMEX CORPORATION) and adjusted as 5×10^8/ml. After PRP (240 μl) was put into each cuvette, the platelet coagulation was assessed by automated hematology analyzer. After warming at 37° C. for 1.5 min, 10 μl of ADP solution (final concentration: […]) was added, and platelet coagulation was induced. Platelet coagulation was determined for 5 min and the maximum rate of plate coagulation determined.

platelet coagulation [2] = test: Inhibitory activities of test compounds against platelet coagulation in vitro (ADP-induced, rat platelet-rich plasma, aggregometer); assay type: cell-based; conditions: 10 μg/ml test substance in rat PRP, maximum rate of platelet coagulation over 5 min; for inhibition at 10 µg/mL: 5 min, read-out: Test Example 1 (% inhibition)
Protocol: Confirmation of Inhibitory Activities of Test Compounds Against Platelet Coagulation In Vitro
Three to four male Sprague-Dawley rats (8 weeks of age, Japan SLC., Inc.) per group were used in the present test. Platelet coagulation was determined by platelet aggregometer (MCM Hema Tracer 313M, MC Medical, Inc.) according to modified methods described by Born et al. (Journal of Physiology, vol. 168, 178 (1963)). Blood (6.3 ml) was collected from abdominal aorta of rats anesthetized with pentobarbital sodium (40 mg/kg) with a microsyringe containing 0.7 ml of sodium citrate at a concentration of 3.8% as anti-coagulant. The obtained blood containing sodium citrate was centrifuged (230×g for 15 min at room temperature) and plate-rich plasma (hereinafter referred to as PRP) fraction was isolated. Furthermore, after PRP was isolated, the blood was further centrifuged (2,000×g for 10 min at room temperature) and platelet-poor plasma (hereinafter referred to as PPP) fraction was isolated. Platelet count in PRP was determined by automated hematology analyzer (KX-21N, SYSMEX CORPORATION) and adjusted as 5×10^8/ml. After PRP (239 μl) was put into each cuvette, the test substance dissolved in dimethyl sulfoxide (DMSO, 1 μl) was added to the PRP solution and assessed by automated hematology analyzer. In the control group, DMSO solution (1 μl) instead of the test substance solution was added to the PRP solution. After warming at 37° C. for 1.5 min, 10 μl of adenosine-5′-diphosphate (ADP) solution (final concentration: […]) was added, and platelet coagulation was induced. Platelet coagulation was determined for 5 min and the maximum rate of plate coagulation determined.

| Structure (SMILES) | inhibition at 10 µg/mL (platelet coagulation [1]) [%] | inhibition at 10 µg/mL (platelet coagulation [2]) [%] | Test Example 2 (% inhibition) (platelet coagulation [1]) [%] | Test Example 1 (% inhibition) (platelet coagulation [2]) [%] |
| --- | --- | --- | --- | --- |
| CC(=O)SC1CCN(C(C(=O)C2CC2)c2ccccc2F)C/C1=C\c1ccn(CCC(=O)O)n1 (stereo not drawn) [Example 114, (E)-4-(Acetylsulfanyl)-3-{[1-(2-carboxyethyl)-1H-pyrazol-3-yl]methylidene}-1-[2-cyclopropyl-1-(2-fluorophenyl)-2-oxoethyl]piperidine hydrochloride] | 81 | – | – | – |
| O=C(O)CCCCn1ccc(/C=C2\CN(C(C(=O)C3CC3)c3ccccc3F)CCC2S)n1 (stereo not drawn) [Example 121, (E)-3-{[1-(4-Carboxybutyl)-1H-pyrazol-3-yl]methylidene}-1-[2-cyclopropyl-1-(2-fluorophenyl)-2-oxoethyl]-4-sulfanylpiperidine hydrochloride] | 72 | 55 | – | – |
| O=C(CCCn1nncc1/C=C1\CN(C(C(=O)C2CC2)c2ccccc2F)CCC1S)NO (stereo not drawn) [Example 262, (E)-1-[2-Cyclopropyl-1-(2-fluorophenyl)-2-oxoethyl]-3-({1-[3-(N-hydroxycarbamoyl)propyl]-1H-1,2,3-triazol-5-yl}methylidene)-4-sulfanylpiperidine hydrochloride] | 91 | 71 | – | – |
| CCOC(=O)CCn1ccc(/C=C2\CN(C(C(=O)C3CC3)c3ccccc3F)CCC2S)n1 (stereo not drawn) [Example 112, (E)-1-[2-Cyclopropyl-1-(2-fluorophenyl)-2-oxoethyl]-3-({1-[2-(ethoxycarbonyl)ethyl]-1H-pyrazol-3-yl}methylidene)-4-sulfanylpiperidine hydrochloride] | 91 | 75 | – | – |
| CONC(=O)Cn1ccc(/C=C2\CN(C(C(=O)C3CC3)c3ccccc3F)CCC2S)n1.Cl (stereo not drawn) [Example 192, (E)-1-[2-Cyclopropyl-1-(2-fluorophenyl)-2-oxoethyl]-3-{[1-(N-methoxycarbamoylmethyl)-1H-pyrazol-3-yl]methylidene}-4-sulfanylpiperidine hydrochloride] | – | – | 81 | 84 |
| O=C(O)CCn1ncc(/C=C2\CN(C(C(=O)C3CC3)c3ccccc3F)CCC2S)n1 (stereo not drawn) [Example 242, (E)-3-{[2-(Carboxyethyl)-2H-1,2,3-triazol-4-yl]methylidene}-1-[2-cyclopropyl-1-(2-fluorophenyl)-2-oxoethyl]-4-sulfanylpiperidine hydrochloride] | 82 | 75 | – | – |
| O=C(O)CCn1nnc(/C=C2\CN(C(C(=O)C3CC3)c3ccccc3F)CCC2S)n1 (stereo not drawn) [Example 257, (E)-3-{[2-(2-Carboxyethyl)-2H-tetrazol-5-yl]methylidene}-1-[2-cyclopropyl-1-(2-fluorophenyl)-2-oxoethyl]-4-sulfanylpiperidine hydrochloride] | 51 | 87 | – | – |
| O=C(O)CCn1nncc1/C=C1\CN(C(C(=O)C2CC2)c2ccccc2F)CCC1S (stereo not drawn) [Example 134, (E)-3-{[1-(2-Carboxyethyl)-1H-1,2,3-triazol-5-yl]methylidene}-1-[2-cyclopropyl-1-(2-fluorophenyl)-2-oxoethyl]-4-sulfanylpiperidine hydrochloride] | – | 85 | – | – |
| O=C(O)CCCn1cc(/C=C2\CN(C(C(=O)C3CC3)c3ccccc3F)CCC2S)nn1 (stereo not drawn) [Example 143, (E)-3-{[1-(3-Carboxypropyl)-1H-1,2,3-triazol-4-yl]methylidene}-1-[2-cyclopropyl-1-(2-fluorophenyl)-2-oxoethyl]-4-sulfanylpiperidine hydrochloride] | 69 | 81 | – | – |
| CCOC(=O)Cn1ccc(/C=C2/CN(C(C(=O)C3CC3)c3ccccc3F)CCC2S)n1 (stereo not drawn) [Example 154, (Z)-1-[2-Cyclopropyl-1-(2-fluorophenyl)-2-oxoethyl]-3-{[1-(ethoxycarbonylmethyl)-1H-pyrazol-3-yl]methylidene}-4-sulfanylpiperidine hydrochloride] | 79 | – | – | – |
| Cl.O=C(O)CCn1cc(/C=C2\CN(C(C(=O)C3CC3)c3ccccc3F)CCC2S)cn1 (stereo not drawn) [Example 249, (E)-3-{[2-(Carboxyethyl)-1H-pyrazol-4-yl]methylidene}-1-[2-cyclopropyl-1-(2-fluorophenyl)-2-oxoethyl]-4-sulfanylpiperidine hydrochloride] | – | – | 88 | 81 |
| Cl.O=C(C1CC1)C(c1ccccc1F)N1CCC(S)/C(=C/c2c[nH]nn2)C1 (stereo not drawn) [Example 235, (E)-1-[2-Cyclopropyl-1-(2-fluorophenyl)-2-oxoethyl]-4-sulfanyl-3-{[1(2)H-1,2,3-triazol-4(5)-yl]methylidene}piperidine hydrochloride] | – | – | 54 | 77 |
| O=C(O)CCn1nnnc1/C=C1\CN(C(C(=O)C2CC2)c2ccccc2F)CCC1S (stereo not drawn) [Example 258, (E)-3-{[1-(2-Carboxyethyl)-1H-tetrazol-5-yl]methylidene}-1-[2-cyclopropyl-1-(2-fluorophenyl)-2-oxoethyl]-4-sulfanylpiperidine hydrochloride] | 76 | 85 | – | – |
| O=C(O)CCCn1ccc(/C=C2\CN(C(C(=O)C3CC3)c3ccccc3F)CCC2S)n1 (stereo not drawn) [Example 117, (E)-3-{[1-(3-Carboxypropyl)-1H-pyrazol-3-yl]methylidene}-1-[2-cyclopropyl-1-(2-fluorophenyl)-2-oxoethyl]-4-sulfanylpiperidine hydrochloride] | 63 | 70 | – | – |
| O=C(O)Cn1ccc(/C=C2\CN(C(C(=O)C3CC3)c3ccccc3F)CCC2S)n1 (stereo not drawn) [Example 77, (E)-3-{[1-(Carboxymethyl)-1H-pyrazol-3-yl]methylidene}-1-[2-cyclopropyl-1-(2-fluorophenyl)-2-oxoethyl]-4-sulfanylpiperidine hydrochloride] | 77 | 76 | – | – |

— patent US7829580B2, “Cyclic amine derivative having heteroaryl ring” (Sankyo Company, Ltd., priority 2006, dated 2010)
